Measurements: PubChem BioAssay AID1963451 (Molecular Pharmacology Branch, DTP, NCI, 2024)

Tested on: 521955-158-R6-J3-PDC complex spheroid growth, % test/control
Assay: Anticancer human tumor 521955-158-R6-J3-PDC patient-derived pancreatic carcinoma cell line growth inhibition [Asc]
Details: for IC50: curve of first compound; for viability, T/C: stronger effect = lower value; active = viability on the fitted dose curve at most 10% of control; inactive = the rest
Procedure: Multicellular complex tumor spheroid response to apoptosis pathway targeting inhibitors Alrizomadlin, Pelcitoclax, and Dasminapant in combination with a variety of drugs and investigational agents in selected tumor cell lines
The MDM2 inhibitor alrizomadlin, the Bcl-2/Bcl-xL inhibitor pelcitoclax, and the IAPs inhibitor dasminapant were evaluated both individually and in combination with standard of care and investigational anticancer small molecules within a complex spheroid model of solid tumors. . Complex spheroids include a stromal component modeled by human endothelial cells (HUVEC) and fibroblasts modeled by human mesenchymal stem cells (MSCs). The concentration ranges selected for each drug and investigational agent were based upon clinically achievable concentrations if the clinical Cmax of the agent was known.
Compounds. The drugs and investigational agents: alrizomadlin (APG-115; NSC831270), pelcitoclax (APG-1252; NSC835773), dasminapant (APG-1387;NSC834197), TAK-243 (NSC785004), copanlisib (NSC809693), olaparib (NSC753686), talazoparib (NSC767125), cobimetinib (NSC 768068), eltanexor (KPT-8602, NSC 794443), abemaciclib (NSC 768073), sotorasib (NSC818433), adagrasib (NSC 831453), MRTX-1133 (NSC 836407), Iadademestat (ORY1001, NSC 806812), and RMC-4630 (NSC839698), were obtained from the NCI Developmental Therapeutics Program Chemical Repository. The FDA-approved anticancer drug set is available from the Developmental Therapeutics Program at https://dtp.cancer.gov/organization/dscb/obtaining/available plates.htm. […] The stock solutions were prepared in dimethyl sulfoxide (DMSO, Sigma-Aldrich, St. Louis, MO, cat. D2650) at 800-fold the tested concentration and stored at -70 degrees C prior to their use. All drugs and investigational agents were tested over a range starting from a high concentration at or near the clinical Cmax and decreasing in half-log increments. If the clinical Cmax for an agent had not been determined, the highest concentration tested was 10 microM.
The patient-derived cancer (PDC) cell lines include five colon adenocarcinomas: 186277-243-T-J2-PDC, 616215-338-R-J1-PDC, 439559-082-T-J2-PDC, 463943-066-T-J2-PDC, and 519858-162-T-J1-PDC; three pancreatic carcinomas: 323965-272-R-J2-PDC, 521955-158-R6-J3-PDC, and 521955-158-R2-J5-PDC; two uterine sarcomas: 327498-152-R-J2-PDC and 993429-296-R-J1-PDC; two rhabdomyosarcomas: 755483-174-R-J1-PDC and 772245-204-R-J1-PDC; two soft tissue sarcomas: 126254-015-R-J1-PDC and 494315-158-R-J1-PDC; two malignant fibrous histiocytomas: 317291-083-R-J1-PDC and 596521-263-R-J1-PDC; two breast carcinomas: 171881-019-R-J1-PDC and 885512-296-R-J2-PDC; and one ovarian carcinoma: 6556581-035-R-J-PDC were obtained from the NCI PDMR, (https://pdmr.cancer.gov). The established cell lines HSSY-2 synovial sarcoma (RRID:CVCL 8719), SYO-1 synovial sarcoma (RRID:CVCL_7146), MPNST malignant peripheral neural sheath tumor were obtained from the Sloan Kettering Institute. The following established cell lines were purchased from the American Type Culture Collection (ATCC, Manassas, VA), Sor the received from the NCI repository:, PANC-1 pancreatic carcinoma (CRL-1469, RRID:CVCL_0480), OVCAR-5 ovarian carcinoma (RRID:CVCL_1628), OVCAR-8 ovarian carcinoma (RRID:CVCL_1629), , MCF-7 breast carcinoma (CRL-12584, RRID:CVCL_0031), MDA-MB-231 breast carcinoma (CRL-12532, RRID:CVCL_0062), NCI-H1876 small cell lung carcinoma (CRL-5902, RRID:CVCL_1503), NCI-H510A small cell lung carcinoma (HTB-184, RRID:CVCL_1565), NCI-H1417 (CRL-5869, RRID:CVCL_1469), and NCI-H196 small cell lung carcinoma (CRL-5823, RRID:CVCL_1509). Dr. Peter Houghton (Greehey Children's Cancer Research Institute, University of Texas Health Science Center, San Antonio, TX) provided Rh-18 rhabdomyosarcoma (RRID:CVCL_1659). Pooled donor human umbilical vein endothelial cells (HUVEC, Lonza, cat. CC-2519) and human mesenchymal stem cells (hMSC, Lonza, cat. PT-2501) were purchased from Lonza (Walkersville, MD).
Cell Culture. […]

[1] = second compound 0.00949 µM, first compound 0.00316 µM
[2] = second compound 0.00949 µM, first compound 0.01 µM
[3] = second compound 0.00949 µM, first compound 0.0316 µM
[4] = second compound 0.00949 µM, first compound 0.1 µM
[5] = second compound 0.00949 µM, first compound 0.316 µM
[6] = second compound 0.00949 µM, first compound 1 µM
[7] = second compound 0.03 µM, first compound 0.00316 µM
[8] = second compound 0.03 µM, first compound 0.01 µM
[9] = second compound 0.03 µM, first compound 0.0316 µM
[10] = second compound 0.03 µM, first compound 0.1 µM
[11] = second compound 0.03 µM, first compound 0.316 µM
[12] = second compound 0.03 µM, first compound 1 µM
[13] = second compound 0.0949 µM, first compound 0.00316 µM
[14] = second compound 0.0949 µM, first compound 0.01 µM
[15] = second compound 0.0949 µM, first compound 0.0316 µM
[16] = second compound 0.0949 µM, first compound 0.1 µM
[17] = second compound 0.0949 µM, first compound 0.316 µM
[18] = second compound 0.0949 µM, first compound 1 µM
[19] = second compound 0.3 µM, first compound 0.00316 µM
[20] = second compound 0.3 µM, first compound 0.01 µM
[21] = second compound 0.3 µM, first compound 0.0316 µM
[22] = second compound 0.3 µM, first compound 0.1 µM
[23] = second compound 0.3 µM, first compound 0.316 µM
[24] = second compound 0.3 µM, first compound 1 µM
[25] = second compound 0.949 µM, first compound 0.00316 µM
[26] = second compound 0.949 µM, first compound 0.01 µM
[27] = second compound 0.949 µM, first compound 0.0316 µM
[28] = second compound 0.949 µM, first compound 0.1 µM
[29] = second compound 0.949 µM, first compound 0.316 µM
[30] = second compound 0.949 µM, first compound 1 µM
[31] = second compound 3 µM, first compound 0.00316 µM
[32] = second compound 3 µM, first compound 0.01 µM
[33] = second compound 3 µM, first compound 0.0316 µM
[34] = second compound 3 µM, first compound 0.1 µM
[35] = second compound 3 µM, first compound 0.316 µM
[36] = second compound 3 µM, first compound 1 µM
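Note: spheroids exposed to compounds for 7 days.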
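Throughout, for viability, T/C: 100% = DMSO vehicle control wells.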

CCN1CCN(Cc2ccc(Nc3ncc(F)c(-c4cc(F)c5nc(C)n(C(C)C)c5c4)n3)nc2)CC1 + CCN1C(C(=O)NC23CCC(C(=O)O)(CC2)CC3)C(c2cccc(Cl)c2F)C2(C(=O)Nc3cc(Cl)ccc32)C12CCCCC2
inactive: viability, T/C [1] 102% | viability, T/C [2] 90.3% | viability, T/C [3] 79.1% | viability, T/C [4] 101% | viability, T/C [5] 89.1% | viability, T/C [6] 88.6% | viability, T/C [7] 101% | viability, T/C [8] 104% | viability, T/C [9] 88.5% | viability, T/C [10] 92.2% | viability, T/C [11] 92.9% | viability, T/C [12] 102% | viability, T/C [13] 112% | viability, T/C [14] 101% | viability, T/C [15] 97.4% | viability, T/C [16] 95.5% | viability, T/C [17] 91.3% | viability, T/C [18] 106% | viability, T/C [19] 106% | viability, T/C [20] 112% | viability, T/C [21] 102% | viability, T/C [22] 87.8% | viability, T/C [23] 93.1% | viability, T/C [24] 90.2% | viability, T/C [25] 108% | viability, T/C [26] 98.5% | viability, T/C [27] 109% | viability, T/C [28] 93.2% | viability, T/C [29] 93.3% | viability, T/C [30] 102% | viability, T/C [31] 106% | viability, T/C [32] 101% | viability, T/C [33] 91.5% | viability, T/C [34] 84.8% | viability, T/C [35] 103% | viability, T/C [36] 93.2%
> 1000 nM: IC50 (second compound 0.00949 µM) | IC50 (second compound 0.03 µM) | IC50 (second compound 0.0949 µM) | IC50 (second compound 0.3 µM) | IC50 (second compound 0.949 µM) | IC50 (second compound 3 µM)

O=C(c1ccc(F)c(F)c1Nc1ccc(I)cc1F)N1CC(O)([C@@H]2CCCCN2)C1 + CCN1C(C(=O)NC23CCC(C(=O)O)(CC2)CC3)C(c2cccc(Cl)c2F)C2(C(=O)Nc3cc(Cl)ccc32)C12CCCCC2
559 nM: IC50 (second compound 0.3 µM)
322 nM: IC50 (second compound 3 µM)
587 nM: IC50 (second compound 0.03 µM)
389 nM: IC50 (second compound 0.0949 µM)
563 nM: IC50 (second compound 0.00949 µM)
380 nM: IC50 (second compound 0.949 µM)
inactive: viability, T/C [1] 85.8% | viability, T/C [2] 102% | viability, T/C [3] 134% | viability, T/C [4] 105% | viability, T/C [5] 65.1% | viability, T/C [6] 35% | viability, T/C [7] 113% | viability, T/C [8] 106% | viability, T/C [9] 104% | viability, T/C [10] 104% | viability, T/C [11] 68.5% | viability, T/C [12] 34% | viability, T/C [13] 104% | viability, T/C [14] 111% | viability, T/C [15] 114% | viability, T/C [16] 90.7% | viability, T/C [17] 53.5% | viability, T/C [18] 38.3% | viability, T/C [19] 121% | viability, T/C [20] 117% | viability, T/C [21] 120% | viability, T/C [22] 86.3% | viability, T/C [23] 63.2% | viability, T/C [24] 38.7% | viability, T/C [25] 118% | viability, T/C [26] 115% | viability, T/C [27] 120% | viability, T/C [28] 80% | viability, T/C [29] 57.2% | viability, T/C [30] 38.5% | viability, T/C [31] 103% | viability, T/C [32] 112% | viability, T/C [33] 104% | viability, T/C [34] 78.5% | viability, T/C [35] 52.5% | viability, T/C [36] 34.4%
